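Five compound concentrations were applied to cells in 96-well plates for 48 hours; endpoints were derived by simple linear interpolation of the resulting dose-response curve. GI50 is the concentration that inhibits growth by half.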 Active and inactive are the calls of the source. Cut-off read from the data, not from the text of the source: active = GI50 up to about 1.1 µM and inactive = higher.
Assays:
Assay in all cases: NCI-60 cell line screen, 48 h
A498 = tested on: A498
A549 = tested on: A549
CAKI-1 = tested on: CAKI-1
DU-145 = tested on: DU-145
EKVX = tested on: EKVX
HCC 2998 = tested on: HCC 2998
HCT-116 = tested on: HCT-116
K562 = tested on: K562
LOX IMVI = tested on: LOX IMVI
M14 = tested on: M14
MOLT-4 = tested on: MOLT-4
NCI-H460 = tested on: NCI-H460
OVCAR-4 = tested on: OVCAR-4
OVCAR-5 = tested on: OVCAR-5
RXF 393 = tested on: RXF 393
SK-MEL-5 = tested on: SK-MEL-5
SNB-75 = tested on: SNB-75
SW-620 = tested on: SW-620
UACC-257 = tested on: UACC-257
SR = tested on: SR

Measured: GI50

O=c1cccc2n1C[C@H]1CNC[C@H]2C1
inactive: A498 > 100 µM | A549 > 100 µM | CAKI-1 > 100 µM | DU-145 > 100 µM | EKVX > 100 µM | HCC 2998 > 100 µM | HCT-116 > 100 µM | K562 > 100 µM | LOX IMVI > 100 µM | M14 > 100 µM | MOLT-4 > 100 µM | NCI-H460 > 100 µM | OVCAR-4 > 100 µM | OVCAR-5 > 100 µM | RXF 393 47 µM | SK-MEL-5 > 100 µM | SNB-75 > 100 µM | SW-620 > 100 µM | UACC-257 > 100 µM

COC(=O)Cc1cc(O)c(C/C=C(\C)CC/C=C(\C)C(O)C(=O)C=C(C)C)cc1O (stereo not given)
inactive: A549 25.6 µM | DU-145 45.4 µM | EKVX 23.6 µM | HCT-116 17.3 µM | K562 15.6 µM | M14 26.3 µM | MOLT-4 14.5 µM | NCI-H460 20.6 µM | OVCAR-4 40.4 µM | OVCAR-5 33.7 µM | RXF 393 14.5 µM | SK-MEL-5 17.1 µM | SNB-75 18.2 µM | SR 15.6 µM | SW-620 31.3 µM | UACC-257 30.7 µM

C/C(CC1C2CCCC1C2)=N\NC(N)=O (stereo not given)
inactive: A549 > 100 µM | CAKI-1 > 100 µM | DU-145 > 100 µM | EKVX > 100 µM | HCC 2998 > 100 µM | HCT-116 > 100 µM | LOX IMVI > 100 µM | M14 > 100 µM | MOLT-4 > 100 µM | NCI-H460 > 100 µM | OVCAR-4 > 100 µM | OVCAR-5 > 100 µM | SK-MEL-5 > 100 µM | SNB-75 > 100 µM | SR > 100 µM | SW-620 > 100 µM | UACC-257 > 100 µM

CCC(=O)ONC(=O)Cn1ccc([N+](=O)[O-])n1
inactive: A549 > 100 µM | CAKI-1 > 100 µM | DU-145 > 100 µM | EKVX > 100 µM | HCC 2998 > 100 µM | HCT-116 > 100 µM | K562 > 100 µM | LOX IMVI > 100 µM | M14 > 100 µM | MOLT-4 > 100 µM | OVCAR-5 > 100 µM | RXF 393 > 100 µM | SK-MEL-5 > 100 µM | SNB-75 > 100 µM | SR > 100 µM | SW-620 > 100 µM | UACC-257 > 100 µM

CN(C)CCCCN1c2ccccc2Sc2ccc(N=[N+]=[N-])cc21
inactive: A498 8.73 µM | A549 9.93 µM | CAKI-1 5.62 µM | DU-145 5.7 µM | EKVX 13.2 µM | HCC 2998 1.66 µM | HCT-116 4.21 µM | K562 2.05 µM | LOX IMVI 2.26 µM | M14 1.67 µM | MOLT-4 1.39 µM | NCI-H460 4.09 µM | OVCAR-4 6.43 µM | OVCAR-5 3.3 µM | RXF 393 4.06 µM | SK-MEL-5 1.67 µM | SNB-75 2.62 µM | SW-620 4.82 µM | UACC-257 1.92 µM

Cc1ccc(S(=O)(=O)N/N=C2/C3CCC(C3)C2c2ccccc2)cc1 (stereo not given)
inactive: A549 > 100 µM | CAKI-1 > 100 µM | DU-145 > 100 µM | EKVX > 100 µM | HCT-116 > 100 µM | K562 > 100 µM | LOX IMVI > 100 µM | M14 > 100 µM | MOLT-4 > 100 µM | NCI-H460 > 100 µM | OVCAR-4 > 100 µM | OVCAR-5 > 100 µM | SK-MEL-5 > 100 µM | SNB-75 > 100 µM | SR > 100 µM | SW-620 > 100 µM | UACC-257 > 100 µM

Reference: ChEMBL document CHEMBL1201862, “PubChem BioAssay data set” (2004)
